# From US20080072640A1, “Insecticidal Fertilizer Solids and Method of Preparation” (priority 2006, published 2008)
# Assay: Solubility of imidacloprid in organic solvents
# Type: physicochemical
# Text: U.S. Pat. No. 5,783,203 mentions acetone as a solvent for imidacloprid. […] Using a 6 wt % solution imidacloprid in acetone would mean applying 1.67 wt % of the solution on the fertilizer based on the combined weight of the fertilizer and the solution to achieve a product with 0.10 wt % imidacloprid. This would be very difficult to achieve a dry product. Fertilizer products with 0.2 wt % and 0.5 wt % imidacloprid would require 3.33 wt % and 8.33 wt % respectively of the imidacloprid solution absorbed onto the fertilizer; concentrations which are not likely feasible in acetone. In addition, acetone is highly flammable which would make processing very difficult and expensive.
# Preferably, the solvent system for use in the present invention consists essentially of either N-methyl-2-pyrrolidone or DMSO. […] Amine-stabilized or caustic-stabilized N-vinyl-pyrrolidone can form a solution with imidacloprid in an amount of about 15 wt % at 25° C. […] The solvent system can consist essentially of N-methyl-2-pyrrolidone, DMSO or a mixture of either N-methyl-2-pyrrolidone or DMSO with one or more co-solvents.
# An imidacloprid solution was prepared by dissolving imidacloprid in dimethyl sulfoxide (DMSO). […] The resulting solution can be sprayed onto a particulate fertilizer in an amount to provide a dry particulate composition containing about 0.1 wt % imidacloprid.
# The solubility of imidacloprid TGAI in N-methyl-2-pyrrolidone (NMP) was investigated. NMP has a favorable flash point of 187° F. (closed cup), mild odor, and is slow to volatilize, which are all very favorable properties. […] A 30 wt % solution can easily be prepared to spray onto fertilizer solids. Spraying a 0.50 wt % solution on fertilizer would achieve 0.15 wt % active ingredient. Spraying a 0.67 wt % solution and 1.67% wt % solution would achieve 0.20 wt % and 0.50 wt % active ingredient, respectively. These are highly plausible concentrations for use.
smiles,measurement,setting,value
"O=[N+]([O-])NC1=NCCN1Cc1ccc(Cl)nc1 [imidacloprid, 1-((6-chloro-3-pyridinyl)methyl)-N-nitro-2-imidazolidinimine]",solubility of imidacloprid in NMP,"solvent N-methyl-2-pyrrolidone (NMP), room temperature",~35 wt %
same,solubility of imidacloprid in N-methyl-2-pyrrolidone,"solvent N-methyl-2-pyrrolidone, 25° C.",about 32 wt %
same,solubility of imidacloprid in acetone,solvent acetone,less than 7 wt %
same,solubility of imidacloprid in N-vinyl-pyrrolidone,"solvent amine-stabilized or caustic-stabilized N-vinyl-pyrrolidone, 25° C.",about 15 wt %
same,solubility of imidacloprid in DMSO,"solvent dimethyl sulfoxide, room temperature of about 23° C.",about 32 wt %
